# Data: patent publication US20050203068A1, “Pharmaceutical compositions containing water-soluble prodrugs of propofol and methods of administering same” (priority 2002, published 2005)
# Where a name gives a salt, the structure may show the parent alone.
# Columns and labels:
# healthy volunteers = test: TCI infusion of AQUAVAN over 2 hours: alertness/sedation (OAA/S, BIS), haemodynamics, propofol plasma concentration
# Procedure: A sterile solution of AQUAVAN™ was prepared as described for Example 1, above.
# Six female (28±3 yrs, 57±4 kg body weight) and 6 male (32±6 yrs., 78±9 kg body weight) volunteers were studied. For a period of 2 hours, a TCI infusion of AQUAVAN™ was administered to provide adequate sedation. The initially selected target concentration of propofol from AQUAVAN™ was 1.8 μg/ml. Sedation was rated as adequate if according to a modified Observers Assessment of Alertness and Sedation Scale (OAA/S) the OAA/S scale value was 2 to 3. After 60 minutes, the target concentration was increased to 2.4 or 3 μg/ml if the OAA/S scale value was 4 or 5, respectively, or reduced to 1.4 μg/ml if the OAA/S scale value was 0 to 1. With an Aspect® A-1000 monitor and two frontal leads the BIS values were recorded. The ECG, blood pressure, heart rate, SaO2 and GPI as well as propofol plasma concentrations were measured. All values are given as mean±standard deviation.
# healthy subjects [1] = test: Single bolus AQUAVAN, six cohorts: lowest OAA/S score and duration of sedation; format: in vivo, human
# Procedure: (§1) Twenty-four healthy subjects (all ASA 1, 25±5 yrs., 70±8 kg) were randomized into 4 cohorts, with 3 male and 3 female in each. Each of the four cohorts was given a single dose of the study formulation described in Table 1 above (5, 10, 20, and 25 mg/kg, AQUAVAN™ respectively). Anesthetic effect was measured continuously using a BIS-XP monitor (Aspect Medical Systems, Natick, Mass.). The lowest BIS level (BISpeak) was recorded. One week later, propofol was given to the same individuals at a rapid infusion rate of 300 ml/h to reach a similar BISpeak. Heart rate (HR), O2 saturation, systolic (SBP) and diastolic (DBP) blood pressure were monitored non-invasively. Incidence and duration of apnea, loss (LOC) and return (ROC) of consciousness and duration of unconsciousness (DOU) were measured with the OAA/S score. Adverse events were recorded. Statistical analysis was performed using Wilcoxon Signed Ranks Test, Mann-Whitney-U test, Chi-Square test and Pearson correlation where appropriate.
# In addition to induction of unconsciousness and duration of general anesthesia (see above), the response of the study subjects to AQUAVAN™ was also examined with regard to sedation. For this purpose, two additional cohorts (n=6 each) were dosed with 15 and 30 mg/kg of AQUAVAN™ as described above. For subjects in all six cohorts, the lowest OAA/S score achieved after AQUAVAN™ administration and the duration of sedation were recorded, with an OAA/S score of 5 indicating no sedation, scores ranging from 4-2 indicating increasingly deep sedated states, and a score of 1 indicating loss of consciousness (LOC)(but allowing for an undirected response to painful tactile stimuli). […] A conscious sedated state typically preceded and followed a period of unconsciousness in subjects who reached LOC. “Mean duration of sedation/LOC” in Table 4 refers to the total time interval from onset of sedation through LOC to recovery of alertness (no sedation).
# healthy male volunteers = test: Target controlled infusion (TCI) of AQUAVAN vs propofol: EEG, loss/recovery of consciousness and corneal reflex; format: in vivo, human; conditions: for Time to LOCR (loss of corneal reflex) / Time to ROC (recovery of consciousness) / Time to ROCR (recovery of corneal reflex) / Time to LOC (loss of consciousness): TCI infusion 60 min, propofol targets 5, 3, 1.5 micrograms/ml; for Time to LOC (loss of consciousness): time after start of infusion
# Procedure: This example compares the effects of target controlled infusions (TCI) of propofol and of O-phosphonooxymethyl propofol disodium salt (AQUAVAN™) on electrical brain activity and consciousness of healthy male volunteers. A sterile solution was prepared in a 20 mL vial, with 20 mg/mL of AQUAVAN™ and 0.4 wt % NaCl. The pH of the solution was adjusted to 8.6±0.4 with HCl or NaOH, as needed.
# Nine male volunteers (age 19 to 35 yrs., body wt. 70 to 86 kg) received propofol as a target controlled infusion (TCI) with three different target concentrations over 60 min. After a washout period of 14 days, the same volunteers received a TCI infusion of AQUAVAN™ with identical propofol target concentrations (crossover design). The infusion scheme was a linear increasing propofol concentration up to 5 micrograms/ml for the first 20 minutes, a target of 3 micrograms/ml for the following 20 minutes, and a target propofol plasma concentration of 1.5 micrograms/ml for the following 20 minutes. At 60 minutes, the infusion was stopped.
# The EEG was recorded using the CATEEM® system and the data analysis was based on the lead O1-CZ. All subjects were tested every 1.5 minutes for Loss and Recovery of Consciousness (LOC and ROC), and for Loss and Recovery of Corneal Reflex (LOCR and ROCR). Arterial blood samples were drawn at predetermined times up to 240 minutes after start of the infusion. The AQUAVAN™ and propofol plasma concentrations were measured with an LC/MS/MS validated assay and an HPLC-FL validated assay (see FIG. 1).
# healthy subjects [2] = test: Single bolus AQUAVAN vs equipotent rapid infusion of propofol: anesthetic effect (BIS, LOC, ROC, DOU), adverse events; format: in vivo, human; conditions: for Pain on injection, incidence / Apnea, incidence / Initial increase in heart rate (HR>90 bpm), incidence: 24 subjects; for Pain on injection, incidence: all cohorts; for Apnea, incidence: dose-dependent; for Initial increase in heart rate (HR>90 bpm), incidence: following administration; for Initial increase in heart rate (HR>90 bpm), incidence / Time of BISpeak (lowest BIS level): p<0.05; for Time of BISpeak (lowest BIS level): AQUAVAN bolus 5-25 mg/kg, propofol rapid infusion 300 ml/h to similar BISpeak; for DOU (duration of unconsciousness) / Time to LOC / Time to ROC: n=6, mean ± SD
# Procedure: This example compares the pharmacodynamics of propofol when administered as a single, bolus dose of the prodrug O-phosphonooxymethyl-propofol di-sodium salt (AQUAVAN™) in accordance with the present invention, to the pharmacodynamics of propofol when administered as such. A sterile solution, the “study formulation,” was prepared in a 20 mL vial, with 20 mg/mL of AQUAVAN™ and 0.4 wt % NaCl. The pH of the solution was adjusted to 8.6±0.4 with HCl or NaOH, as needed.
# as §1
# patients = conditions: anesthetic induction doses of propofol; Bryson et al.; cited from earlier work
# [3] = Cohort 3 (20 mg/kg AQUAVAN bolus; propofol rapid infusion to similar BISpeak)
# [4] = Cohort 4 (25 mg/kg AQUAVAN bolus; propofol rapid infusion to similar BISpeak)
smiles,measurement,setting,value
"CC(C)c1cccc(C(C)C)c1OCOP(=O)(O)O [AQUAVAN, O-phosphonooxymethyl propofol disodium salt]",OAA/S scale value after 60 minutes,"healthy volunteers; TCI infusion, initial propofol target 1.8 μg/ml, mean±SD",3.7±1.1
same,Time after stopping the infusion to recovery to OAA/S scale value of 5,"healthy volunteers; after 2 hour TCI infusion, mean±SD",18 ± 3 min
same,Systolic BP after decrease,healthy volunteers; decreased from 134±14,106±10 mm Hg
same,BIS value,healthy volunteers; during the first hour of infusion (96±2 before infusion),74±13
same,BIS value,healthy volunteers; during the second hour of infusion,64±14
same,Heart rate increase,healthy volunteers; from 64±14 to 72±8,13%
same,Systolic BP decrease,healthy volunteers; from 134±14 to 106±10 mm Hg,21%
same,Heart rate after increase,healthy volunteers; increased from 64±14,72±8
same,Time after TCI target change until OAA/S scale value in target range of 2 to 3,"healthy volunteers; target changed at 60 minutes, mean±SD",4.2 ± 2.5 min
same,Duration - range,healthy subjects [1]; Cohort 1: 5 mg/kg bolus,0 to 16 min
same,Mean duration of sedation/LOC,healthy subjects [1]; Cohort 1: 5 mg/kg bolus,4.2 min
same,Duration - range,healthy subjects [1]; Cohort 2: 10 mg/kg bolus,0 to 24 min
same,Mean duration of sedation/LOC,healthy subjects [1]; Cohort 2: 10 mg/kg bolus,14 min
same,Duration - range,healthy subjects [1]; Cohort 3: 20 mg/kg bolus,22 to 45 min
same,Mean duration of sedation/LOC,healthy subjects [1]; Cohort 3: 20 mg/kg bolus,39.5 min
same,Duration - range,healthy subjects [1]; Cohort 4: 25 mg/kg bolus,42 to 78 min
same,Mean duration of sedation/LOC,healthy subjects [1]; Cohort 4: 25 mg/kg bolus,57.8 min
same,Duration - range,healthy subjects [1]; Cohort 5: 15 mg/kg bolus,18 to 34 min
same,Lowest OAA/S Score (subjects - score),healthy subjects [1]; Cohort 5: 15 mg/kg bolus,6/6 - 1 (LOC)
same,Mean duration of sedation/LOC,healthy subjects [1]; Cohort 5: 15 mg/kg bolus,22.6 min
same,Duration - range,healthy subjects [1]; Cohort 6: 30 mg/kg bolus,43 to 96 min
same,Mean duration of sedation/LOC,healthy subjects [1]; Cohort 6: 30 mg/kg bolus,54.3 min
same,State observed after bolus,healthy subjects [1]; bolus doses of 15 mg/kg and higher,induced unconscious states that varied in duration
same,State observed after bolus,healthy subjects [1]; dose ranges of 5-10 mg/kg,"Conscious sedation, but no loss of consciousness"
same,Time to LOCR (loss of corneal reflex),healthy male volunteers,16 ± 5 min
same,Time to ROC (recovery of consciousness),healthy male volunteers,73 ± 13 min
same,Time to ROCR (recovery of corneal reflex),healthy male volunteers,46 ± 15 min
same,Time to LOC (loss of consciousness),healthy male volunteers,9 ± 2 min
same,Decrease of Median Power Frequency (MPF) in the EEG,"healthy male volunteers; plasma propofol from AQUAVAN compared to plasma propofol from propofol, comparable plasma concentrations",greater decrease of the MPF
same,Loss of consciousness (LOC) reached,healthy subjects [2]; 5 mg/kg single bolus cohort,no LOC was reached
same,Loss of consciousness (LOC) reached,healthy subjects [2]; 10 mg/kg single bolus cohort,no LOC was reached
same,Loss of consciousness (LOC) reached,healthy subjects [2]; 20 mg/kg single bolus cohort,all subjects reached LOC
same,Loss of consciousness (LOC) reached,healthy subjects [2]; 25 mg/kg single bolus cohort,all subjects reached LOC
same,"Pain on injection, incidence",healthy subjects [2],only reported for propofol
same,"Apnea, incidence",healthy subjects [2],7 of 24
same,"Initial increase in heart rate (HR>90 bpm), incidence",healthy subjects [2],17 of the 24
same,Time of BISpeak (lowest BIS level),healthy subjects [2],630 ± 225 s
same,DOU (duration of unconsciousness),healthy subjects [2]; [3],1507 ± 914 s
same,Time to LOC,healthy subjects [2]; [3],157 ± 69 s
same,Time to ROC,healthy subjects [2]; [3],1664 ± 920 s
same,DOU (duration of unconsciousness),healthy subjects [2]; [4],2703 ± 267 s
same,Time to LOC,healthy subjects [2]; [4],162 ± 40 s
same,Time to ROC,healthy subjects [2]; [4],2865 ± 245 s
"CC(C)c1cccc(C(C)C)c1O [propofol, 2,6-diisopropylphenol]","Respiratory consequences, including reduction in tidal volume and apnea: share of patients",patients,up to 83%
same,Time to LOCR (loss of corneal reflex),healthy male volunteers,19 ± 6 min
same,Time to ROC (recovery of consciousness),healthy male volunteers,47 ± 10 min
same,Time to ROCR (recovery of corneal reflex),healthy male volunteers,32 ± 10 min
same,Time to LOC (loss of consciousness),healthy male volunteers,13 ± 2 min
same,"Pain on injection, incidence",healthy subjects [2],10 of the 24
same,"Apnea, incidence",healthy subjects [2],10 of 24
same,"Initial increase in heart rate (HR>90 bpm), incidence",healthy subjects [2],4 of the 24
same,Time of BISpeak (lowest BIS level),healthy subjects [2],358 ± 315 s
same,DOU (duration of unconsciousness),healthy subjects [2]; [3],416 ± 94 s
same,Time to LOC,healthy subjects [2]; [3],184 ± 63 s
same,Time to ROC,healthy subjects [2]; [3],600 ± 105 s
same,DOU (duration of unconsciousness),healthy subjects [2]; [4],748 ± 245 s
same,Time to LOC,healthy subjects [2]; [4],208 ± 84 s
same,Time to ROC,healthy subjects [2]; [4],956 ± 294 s
